Laboratory results reported in ChEMBL document CHEMBL5096158, “HIV latency reversal agents: A potential path for functional cure?” (Eur J Med Chem, 2021).
pEC50, pIC50: −log10 of the molar value.

What was measured:
[1] = system: Human immunodeficiency virus 1; experiment: Reactivation of HIV-1 latency infected in human Th17 cells assessed as increase in HIV production by measuring phosphorylated S175 CDK9 levels at 10 nM incubated for 96 hrs by flow cytometry; format: functional
[2] = system: Human immunodeficiency virus 1; experiment: Reactivation of HIV-1 latency infected in human Th17 cells assessed as increase in HIV production by measuring phosphorylated S175 CDK9 levels at 1 uM incubated for 96 hrs by flow cytometry; format: functional
[3] = system: Human immunodeficiency virus 1; experiment: Reversal of HIV-1 latency infected in human J-Lat Tat-GFP Clone A7 cells assessed as increase in GFP expressing cells at 200 nM incubated for 72 hrs by flow cytometry analysis relative to control; format: functional
[4] = system: Human immunodeficiency virus 1; experiment: Reversal of HIV-1 latency infected in GFP-fused human J-Lat C11 cells assessed as increase in GFP expression at 10 uM incubated for 72 hrs by flow cytometry; format: functional
[5] = system: Human immunodeficiency virus 1; experiment: Reversal of HIV-1 latency infected in GFP-fused human J-Lat 10.6 cells increase in GFP expressing cells by FACS analysis; format: functional, organism-based; settings: Human immunodeficiency virus 1, J-Lat 10.6
[6] = system: Human immunodeficiency virus 1; experiment: Reactivation of HIV-1 latency in GFP-fused human primary CD4+ve Th cells infected with HIV-1NL4-3 luciferase virus assessed as fold increase in GFP expression incubated for 48 hrs by luciferase luminescence analysis; format: functional
[7] = system: Human immunodeficiency virus 1; experiment: Reversal of HIV-1 latency infected in GFP-fused human J-Lat A2 cells assessed as increase in GFP expression at 4 uM incubated for 3 hrs by flow cytometry; format: functional
[8] = system: Human immunodeficiency virus 1; experiment: Reversal of HIV-1 latency infected in GFP-fused human J-Lat C11 cells assessed as increase in GFP expression at 4 uM incubated for 3 hrs by flow cytometry; format: functional
[9] = system: Human immunodeficiency virus 1; experiment: Reactivation of HIV-1 latency infected in human J-Lat GFP Clone A72 cells assessed as increase in GFP expression at 5 to 10 mM incubated for 18 hrs by flow cytometry; format: functional; settings: dose 5-10 mM
[10] = system: Human immunodeficiency virus 1; experiment: Reactivation of HIV-1 latency infected in human CD4+ve Th cells assessed as fold increase in GFP expression at 500 nM incubated for 18 hrs by flow cytometry; format: functional
[11] = target: N-lysine methyltransferase SMYD2 (Homo sapiens, UniProt Q9NRG4); experiment: Inhibition of SMYD2 (unknown origin)
[12] = system: Human immunodeficiency virus 1; experiment: Reversal of HIV-1 latency infected in GFP-fused human A10.6 cells assessed as fold increase in acetylation of H3 within Nuc-1 at 0.5 uM incubated for 4 hrs by ChIP assay; format: functional, A10.6 cell
[13] = system: Human immunodeficiency virus 1; experiment: Reversal of HIV-1 latency infected in GFP-fused human A10.6 cells assessed as increase in GFP expressing cells at 1 uM incubated for 24 hrs by FACS analysis; format: functional, A10.6 cell
[14] = system: Human immunodeficiency virus 1; experiment: Reversal of HIV-1 latency infected in GFP-fused human A10.6 cells assessed as increase in GFP expressing cells at 0.25 uM incubated for 24 hrs by FACS analysis; format: functional
[15] = system: Human immunodeficiency virus 1; experiment: Reversal of HIV-1 latency infected in GFP-fused human A10.6 cells assessed as fold increase in acetylation of H4 within Nuc-1 at 0.5 uM incubated for 4 hrs by ChIP assay; format: functional, A10.6 cell
[16] = system: Human immunodeficiency virus 1; experiment: Reversal of HIV-1 latency infected in GFP-fused human Jurkat latent cells assessed as increase in GFP expressing cells at 4 uM incubated for 48 hrs by flow cytometry analysis; format: functional
[17] = system: Human immunodeficiency virus 1; experiment: Reactivation of HIV-1 latency infected in GFP-fused human J-Lat 10.6 cells assessed as increase in GFP expression incubated for 48 hrs by flow cytometry; format: functional, organism-based; settings: Human immunodeficiency virus 1, J-Lat 10.6, 48 h
[18] = Inhibition of HIV-1 latency infected in human ACH-2 cells assessed as fold increase in HIV production by measuring p24 level incubated for 48 hrs in presence of vorinostat by ELISA; format: functional, Human immunodeficiency virus 1, ACH-2 cell line
[19] = Inhibition of HIV-1 latency infected in human ACH-2 cells assessed as fold increase in HIV production by measuring p24 level incubated for 48 hrs in presence of 5-azacytidine by ELISA; format: functional, Human immunodeficiency virus 1, ACH-2 cell line
[20] = system: Human immunodeficiency virus 1; experiment: Reversal of HIV-1 latency infected in GFP-fused human J-Lat C11 cells assessed as increase in GFP expression at 100 uM incubated for 72 hrs by flow cytometry; format: functional
[21] = Inhibition of HIV-1 latency infected in human ACH-2 cells assessed as fold increase in HIV production by measuring p24 level incubated for 48 hrs in presence of BIX01294 by ELISA; format: functional, Human immunodeficiency virus 1, ACH-2 cell line
Histone deacetylase 4 = Histone deacetylase 4 (Homo sapiens, UniProt P56524); experiment: Inhibition of recombinant human HDAC4 expressed in baculovirus expression system using KI-104 as substrate incubated for 3 hrs by fluorescence-based assay
[22] = target: T1, Protein deacetylase HDAC6 (Homo sapiens, UniProt Q9UBN7); experiment: Inhibition of recombinant human HDAC6 expressed in baculovirus expression system using KI-104 as substrate incubated for 3 hrs by fluorescence-based assay
T1 sequence (Q9UBN7 whole entry): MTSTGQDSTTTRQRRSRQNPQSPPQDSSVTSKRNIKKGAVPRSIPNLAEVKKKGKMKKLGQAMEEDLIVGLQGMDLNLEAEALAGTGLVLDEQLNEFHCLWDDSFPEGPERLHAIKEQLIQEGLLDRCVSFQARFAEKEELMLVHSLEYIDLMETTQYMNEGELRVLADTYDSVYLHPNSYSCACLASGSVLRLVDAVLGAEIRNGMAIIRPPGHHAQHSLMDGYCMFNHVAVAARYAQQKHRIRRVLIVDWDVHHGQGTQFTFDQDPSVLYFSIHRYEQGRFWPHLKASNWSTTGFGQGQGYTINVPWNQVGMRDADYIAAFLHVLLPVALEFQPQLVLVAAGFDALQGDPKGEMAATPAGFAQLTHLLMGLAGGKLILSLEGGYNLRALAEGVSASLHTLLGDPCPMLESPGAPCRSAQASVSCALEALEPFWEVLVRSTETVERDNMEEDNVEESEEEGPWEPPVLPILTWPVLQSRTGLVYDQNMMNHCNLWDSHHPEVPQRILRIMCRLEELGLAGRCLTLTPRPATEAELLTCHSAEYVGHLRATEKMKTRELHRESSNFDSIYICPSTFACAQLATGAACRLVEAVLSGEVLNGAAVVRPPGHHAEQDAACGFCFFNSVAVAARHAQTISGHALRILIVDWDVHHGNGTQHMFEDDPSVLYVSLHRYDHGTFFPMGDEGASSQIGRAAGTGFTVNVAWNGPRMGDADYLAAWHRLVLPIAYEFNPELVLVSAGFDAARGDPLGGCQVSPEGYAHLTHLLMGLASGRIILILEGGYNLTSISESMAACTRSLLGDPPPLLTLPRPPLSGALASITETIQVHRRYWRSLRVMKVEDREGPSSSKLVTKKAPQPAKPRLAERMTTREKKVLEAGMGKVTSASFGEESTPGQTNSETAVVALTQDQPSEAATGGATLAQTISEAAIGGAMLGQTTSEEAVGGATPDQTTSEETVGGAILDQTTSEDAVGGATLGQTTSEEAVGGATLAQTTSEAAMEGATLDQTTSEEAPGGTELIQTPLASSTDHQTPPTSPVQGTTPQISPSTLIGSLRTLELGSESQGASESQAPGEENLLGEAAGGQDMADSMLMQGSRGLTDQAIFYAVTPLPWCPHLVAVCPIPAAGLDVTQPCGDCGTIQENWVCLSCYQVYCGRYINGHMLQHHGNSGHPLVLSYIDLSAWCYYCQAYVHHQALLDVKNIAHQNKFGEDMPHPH

[23] = system: Human immunodeficiency virus 1; experiment: Reactivation of HIV-1 latency in human ACH-2 cells assessed as fold increase in p24 expression at 1 uM incubated for 24 hrs by western blot analysis; format: functional, ACH-2 cell line
[24] = system: Human immunodeficiency virus 1; experiment: Reactivation of HIV-1 latency in human U1 cells assessed as fold increase in p24 expression at 1 uM incubated for 24 hrs by western blot analysis; format: functional
[25] = system: Human immunodeficiency virus 1; experiment: Reversal of HIV-1 latency in human ACH-2 cells assessed as increase in GFP positive cells incubated for 24 hrs by flow cytometry; format: functional, organism-based, ACH-2 cell line; settings: Human immunodeficiency virus 1, ACH-2, 24 h
[26] = system: Human immunodeficiency virus 1; experiment: Reversal of HIV-1 latency infected in human ACH-2 cells assessed as fold increase in p24 expression level at 15.6 nM incubated for 48 hrs by ELISA; format: functional, ACH-2 cell line
[27] = system: Human immunodeficiency virus 1; experiment: Reversal of HIV-1 latency infected in human U1 cells assessed as fold increase in p24 expression level at 31.1 nM incubated for 48 hrs by ELISA; format: functional
[28] = system: Human immunodeficiency virus 1; experiment: Reversal of HIV-1 latency infected in human U1 cells assessed as fold increase in p24 expression level at 15.6 nM incubated for 48 hrs by ELISA; format: functional
[29] = Inhibition of HIV-1 latency in human CD4+ve Th cells infected NL4.3-Luc virus assessed as p24 expression level incubated for 48 hrs by v450 dye based flow cytometry; format: functional, cell-based; settings: Human immunodeficiency virus 1, CD4+ve Th
[30] = system: Human immunodeficiency virus 1; experiment: Reversal of HIV-1 latency infected in human ACH-2 cells assessed as fold increase in p24 expression level at 31.1 nM incubated for 48 hrs by ELISA; format: functional, ACH-2 cell line
[31] = system: Human immunodeficiency virus 1; experiment: Reversal of HIV-1 latency infected in human J-Lat Tat-GFP Clone A7 cells assessed as increase in GFP expressing cells at 100 nM incubated for 72 hrs by flow cytometry analysis relative to control; format: functional
[32] = system: Human immunodeficiency virus 1; experiment: Reversal of HIV-1 latency infected in GFP-fused human J-Lat C11 cells assessed as increase in GFP expression at 2 uM incubated for 3 hrs by flow cytometry; format: functional

Chain of Histone deacetylase 4 (P56524 whole entry): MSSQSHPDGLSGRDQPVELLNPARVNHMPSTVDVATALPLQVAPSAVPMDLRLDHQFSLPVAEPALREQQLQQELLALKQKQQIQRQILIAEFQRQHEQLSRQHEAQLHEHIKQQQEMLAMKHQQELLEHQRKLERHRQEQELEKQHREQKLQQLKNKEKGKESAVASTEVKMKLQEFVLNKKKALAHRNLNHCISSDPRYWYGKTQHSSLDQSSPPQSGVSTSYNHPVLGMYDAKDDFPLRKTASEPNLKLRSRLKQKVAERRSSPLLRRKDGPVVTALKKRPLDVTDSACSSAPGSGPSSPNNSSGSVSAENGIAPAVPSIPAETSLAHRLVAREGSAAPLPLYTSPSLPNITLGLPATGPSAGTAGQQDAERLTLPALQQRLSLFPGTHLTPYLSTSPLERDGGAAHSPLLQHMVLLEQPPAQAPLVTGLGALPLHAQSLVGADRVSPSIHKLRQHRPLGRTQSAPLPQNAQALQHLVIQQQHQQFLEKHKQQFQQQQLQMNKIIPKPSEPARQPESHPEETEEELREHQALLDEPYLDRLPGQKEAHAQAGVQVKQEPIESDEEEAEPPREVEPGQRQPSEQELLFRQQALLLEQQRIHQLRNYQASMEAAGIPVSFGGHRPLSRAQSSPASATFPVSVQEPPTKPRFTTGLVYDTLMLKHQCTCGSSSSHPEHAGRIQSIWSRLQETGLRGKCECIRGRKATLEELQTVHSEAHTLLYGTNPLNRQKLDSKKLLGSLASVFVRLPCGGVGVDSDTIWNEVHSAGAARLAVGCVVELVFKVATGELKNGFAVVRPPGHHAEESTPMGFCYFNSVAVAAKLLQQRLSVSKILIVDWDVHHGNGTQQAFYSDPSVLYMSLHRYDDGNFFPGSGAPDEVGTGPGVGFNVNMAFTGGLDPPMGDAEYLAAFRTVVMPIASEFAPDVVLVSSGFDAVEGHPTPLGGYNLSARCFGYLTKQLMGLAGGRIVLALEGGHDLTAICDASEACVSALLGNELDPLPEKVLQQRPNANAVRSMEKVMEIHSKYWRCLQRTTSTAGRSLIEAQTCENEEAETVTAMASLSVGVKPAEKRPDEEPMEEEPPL
Chain of N-lysine methyltransferase SMYD2 (Q9NRG4 whole entry, the tested form may be a part): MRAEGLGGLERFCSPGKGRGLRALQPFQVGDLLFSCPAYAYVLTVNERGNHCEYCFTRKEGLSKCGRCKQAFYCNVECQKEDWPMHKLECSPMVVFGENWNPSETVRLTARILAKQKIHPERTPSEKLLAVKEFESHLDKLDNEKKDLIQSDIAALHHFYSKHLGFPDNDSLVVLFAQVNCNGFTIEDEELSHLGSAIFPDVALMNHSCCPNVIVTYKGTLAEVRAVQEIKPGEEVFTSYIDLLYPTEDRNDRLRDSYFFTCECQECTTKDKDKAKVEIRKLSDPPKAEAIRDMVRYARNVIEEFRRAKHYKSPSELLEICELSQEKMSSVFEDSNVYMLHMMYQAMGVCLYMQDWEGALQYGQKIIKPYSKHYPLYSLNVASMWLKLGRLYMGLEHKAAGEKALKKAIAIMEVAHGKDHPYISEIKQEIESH

COc1cc2c(NC3CCN(C(C)C)CC3)nc(C3CCCCC3)nc2cc1OCCCN1CCCC1
Activity [1]: 22% | Activity [2]: 35%

CN(C)c1ccc(C(=O)NCCCCCCC(=O)NO)cc1
Activity [3]: 25.2%

COc1ccccc1S(=O)(=O)Nc1ccc2c(c1)CN(C)C(=O)N2
Activity [4]: 89%

CCCc1cc(C)[nH]c(=O)c1CNC(=O)c1cc(-c2ccnc(N3CCN(C)CC3)c2)cc2c1cnn2C(C)C
Activity [1]: 20% | Activity [2]: 35%

O=C(CCCCSc1nc(-c2ccc(-c3ccccc3)cc2)cc(=O)[nH]1)NO
pEC50 [5]: 6.46 | fold change (FC) [6]: 4.3

O=C(/C=C/c1ccc(NC(=O)C(Cc2ccccc2)c2ccccc2)cn1)NO (stereo not given)
pEC50 [5]: 6.46 | fold change (FC) [6]: 6.4

Nc1ccc(F)cc1NC(=O)c1ccc(CNC(=O)/C=C/c2cccnc2)cc1
Activity [7]: 80.6% | Activity [8]: 82.6%

O=C(NCCCN1CCCC1)c1cncc(-c2ccccc2N2CCN(CCc3c[nH]c4ccccc34)CC2)c1
Activity [9]: 30%

N#Cc1cc(C(=O)NCCCN2CCCC2)cc(-c2ccccc2N2CCN(CCc3c[nH]c4ccccc34)CC2)c1
Activity [9]: 30% | fold change (FC) [10]: 4 | pIC50 [11]: 7.57

CCC(=O)CCCCC[C@@H]1NC(=O)[C@H]2CCCCN2C(=O)[C@H]([C@@H](C)CC)NC(=O)[C@H](Cc2cc3ccccc3n2OC)NC1=O
fold change (FC) [12]: 1.34 | Activity [13]: 24.9% | Activity [14]: 7.5% | fold change (FC) [15]: 3.15

CC(=O)SCCCCC[C@H](NC(=O)C1CCC(=O)N1)C(=O)Nc1ccccc1 (stereo not given in full)
Activity [16]: 52%

CC(C)=CC(=O)O[C@H]1C(C)=C[C@]23C(=O)[C@H](C=C(CO)[C@@H](O)[C@]12O)C1C(C[C@H]3C)C1(C)C (stereo not given in full)
pEC50 [17]: 7.24

COc1cc2nc(N3CCCN(C)CC3)nc(NC3CCN(Cc4ccccc4)CC3)c2cc1OC
fold change (FC) [18]: 47 | fold change (FC) [19]: 47

COc1cc(OC)c2c(=O)[nH]c(-c3cc(C)c(OCCO)c(C)c3)nc2c1 [APABETALONE]
Activity [20]: 75%

Nc1ncn([C@@H]2O[C@H](CO)[C@@H](O)[C@H]2O)c(=O)n1 [AZACITIDINE]
fold change (FC) [21]: 47

O=C(/C=C/c1cccc(S(=O)(=O)Nc2ccccc2)c1)NO [BELINOSTAT]
pEC50 (Histone deacetylase 4): 6.94 | pEC50 [22]: 7.09

CC[C@@H]1C(=O)N(C)c2cnc(Nc3ccc(C(=O)NC4CCN(C)CC4)cc3OC)nc2N1C1CCCC1 [BI-2536]
fold change (FC) [23]: 261 | fold change (FC) [24]: 177

CC(C)[C@H]1C(=O)N[C@H](CO)Cc2c[nH]c3cccc(c23)N1C [INDOLACTUM]
pEC50 [25]: 7.33

Cc1[nH]c2ccccc2c1CCNCc1ccc(/C=C/C(=O)NO)cc1 [PANOBINOSTAT]
fold change (FC) [26]: 27.7 | fold change (FC) [27]: 19.9 | fold change (FC) [28]: 12.8 | pEC50 [29]: 8.00 | fold change (FC) [30]: 51.8

CCN(c1cc(-c2ccc(CN3CCOCC3)cc2)cc(C(=O)NCc2c(C)cc(C)[nH]c2=O)c1C)C1CCOCC1 [TAZEMETOSTAT]
Activity [1]: 25% | Activity [2]: 35%

CC(/C=C/C(=O)NO)=C\[C@@H](C)C(=O)c1ccc(N(C)C)cc1 [TRICHOSTATIN]
Activity [31]: 21.3%

O=C(CCCCCCC(=O)Nc1ccccc1)NO [VORINOSTAT]
Activity [32]: 3.2%
